Common to all, as to test: Kinase inhibitor specificity profiling (Reaction Biology Corporation)
Holding throughout (format): biochemical
What all share (set-up): % Enzyme Activity (relative to DMSO controls): concentration or dose not given beside the values

Test [1] deals with T1, panel of 370 protein kinases (Homo sapiens, UniProt O43318).
T1 construct: purchased Reaction Biology Corporation (assay service)
The note with it: 2 h, kinase TAK1; read-out: % Enzyme Activity (relative to DMSO controls).

Test [2] concerns the target T2, panel of 370 protein kinases (Homo sapiens, UniProt O43781).
T2 construct: purchased Reaction Biology Corporation (assay service)
The note with it: 2 h, kinase DYRK3; read-out: % Enzyme Activity (relative to DMSO controls).

The target in test [3] is T3, panel of 370 protein kinases (Homo sapiens, UniProt O75116).
T3 construct: purchased Reaction Biology Corporation (assay service)
The note with it: 2 h, kinase ROCK2; read-out: % Enzyme Activity (relative to DMSO controls).

The target in test [4] is T4, panel of 370 protein kinases (Homo sapiens, UniProt O95747).
T4 construct: purchased Reaction Biology Corporation (assay service)
The conditions noted are these: 2 h, kinase OSR1/OXSR1; read-out: % Enzyme Activity (relative to DMSO controls).

Test [5] deals with T5, panel of 370 protein kinases (Homo sapiens, UniProt P00533).
T5 construct: purchased Reaction Biology Corporation (assay service)
The conditions noted are these: kinase EGFR.

In test [6] the target is T6, panel of 370 protein kinases (Homo sapiens, UniProt P07949).
T6 construct: purchased Reaction Biology Corporation (assay service)
The note with it: 2 h, kinase RET; read-out: % Enzyme Activity (relative to DMSO controls).

Test [7] concerns the target T7, panel of 370 protein kinases (Homo sapiens, UniProt P22612).
T7 construct: purchased Reaction Biology Corporation (assay service)
The conditions noted are these: 2 h, kinase PKAcg; read-out: % Enzyme Activity (relative to DMSO controls).

Test [8] deals with T8, panel of 370 protein kinases (Homo sapiens, UniProt P51956).
T8 construct: purchased Reaction Biology Corporation (assay service)
The conditions noted are these: 2 h, kinase NEK3; read-out: % Enzyme Activity (relative to DMSO controls).

The target in test [9] is T9, panel of 370 protein kinases (Homo sapiens, UniProt Q04771).
T9 construct: purchased Reaction Biology Corporation (assay service)
The note with it: 2 h, kinase ALK2/ACVR1; read-out: % Enzyme Activity (relative to DMSO controls).

Test [10] concerns the target T10, panel of 370 protein kinases (Homo sapiens, UniProt Q05513).
T10 construct: purchased Reaction Biology Corporation (assay service)
The conditions noted are these: 2 h, kinase PKCzeta; read-out: % Enzyme Activity (relative to DMSO controls).

Test [11] has as its target T11, panel of 370 protein kinases (Homo sapiens, UniProt Q06187).
T11 construct: purchased Reaction Biology Corporation (assay service)
The conditions noted are these: kinase BTK.

The target in test [12] is T12, panel of 370 protein kinases (Homo sapiens, UniProt Q07002).
T12 construct: purchased Reaction Biology Corporation (assay service)
The note with it: 2 h, kinase CDK18/cyclin Y (PCTK3); read-out: % Enzyme Activity (relative to DMSO controls).

For test [13], the target named is T13, panel of 370 protein kinases (Homo sapiens, UniProt Q12851).
T13 construct: purchased Reaction Biology Corporation (assay service)
The conditions noted are these: 2 h, kinase GCK/MAP4K2; read-out: % Enzyme Activity (relative to DMSO controls).

The target in test [14] is T14, panel of 370 protein kinases (Homo sapiens, UniProt Q13873).
T14 construct: purchased Reaction Biology Corporation (assay service)
The conditions noted are these: kinase BMPR2.

In test [15] the target is T15, panel of 370 protein kinases (Homo sapiens, UniProt Q14680).
T15 construct: purchased Reaction Biology Corporation (assay service)
The conditions noted are these: 2 h, kinase MELK; read-out: % Enzyme Activity (relative to DMSO controls).

Test [16] deals with T16, panel of 370 protein kinases (Homo sapiens, UniProt Q5TCX8).
T16 construct: purchased Reaction Biology Corporation (assay service)
The note with it: 2 h, kinase MLK4; read-out: % Enzyme Activity (relative to DMSO controls).

The target of test [17] is T17, panel of 370 protein kinases (Homo sapiens, UniProt Q6PHR2).
T17 construct: purchased Reaction Biology Corporation (assay service)
The note with it: kinase ULK3.

The target of test [18] is T18, panel of 370 protein kinases (Homo sapiens, UniProt Q86V86).
T18 construct: purchased Reaction Biology Corporation (assay service)
The conditions noted are these: 2 h, kinase PIM3; read-out: % Enzyme Activity (relative to DMSO controls).

The target in test [19] is T19, panel of 370 protein kinases (Homo sapiens, UniProt Q8IY84).
T19 construct: purchased Reaction Biology Corporation (assay service)
The conditions noted are these: 2 h, kinase NIM1; read-out: % Enzyme Activity (relative to DMSO controls).

Test [20] has as its target T20, panel of 370 protein kinases (Homo sapiens, UniProt Q8TDC3).
T20 construct: purchased Reaction Biology Corporation (assay service)
The conditions noted are these: 2 h, kinase BRSK1; read-out: % Enzyme Activity (relative to DMSO controls).

In test [21] the target is T21, panel of 370 protein kinases (Homo sapiens, UniProt Q96PN8).
T21 construct: purchased Reaction Biology Corporation (assay service)
The conditions noted are these: 2 h, kinase TSSK3/STK22C; read-out: % Enzyme Activity (relative to DMSO controls).

Test [22] addresses T22, panel of 370 protein kinases (Homo sapiens, UniProt Q9HC98).
T22 construct: purchased Reaction Biology Corporation (assay service)
The note with it: 2 h, kinase NEK6; read-out: % Enzyme Activity (relative to DMSO controls).

Several values for one entry are separate records, joined by “and”; a condition that tells them apart may be missing. Identical values can stand only once.

The record followed here is paper PMC9133015 (Nature Communications, 2022).

T14 sequence (Q13873 27-1038): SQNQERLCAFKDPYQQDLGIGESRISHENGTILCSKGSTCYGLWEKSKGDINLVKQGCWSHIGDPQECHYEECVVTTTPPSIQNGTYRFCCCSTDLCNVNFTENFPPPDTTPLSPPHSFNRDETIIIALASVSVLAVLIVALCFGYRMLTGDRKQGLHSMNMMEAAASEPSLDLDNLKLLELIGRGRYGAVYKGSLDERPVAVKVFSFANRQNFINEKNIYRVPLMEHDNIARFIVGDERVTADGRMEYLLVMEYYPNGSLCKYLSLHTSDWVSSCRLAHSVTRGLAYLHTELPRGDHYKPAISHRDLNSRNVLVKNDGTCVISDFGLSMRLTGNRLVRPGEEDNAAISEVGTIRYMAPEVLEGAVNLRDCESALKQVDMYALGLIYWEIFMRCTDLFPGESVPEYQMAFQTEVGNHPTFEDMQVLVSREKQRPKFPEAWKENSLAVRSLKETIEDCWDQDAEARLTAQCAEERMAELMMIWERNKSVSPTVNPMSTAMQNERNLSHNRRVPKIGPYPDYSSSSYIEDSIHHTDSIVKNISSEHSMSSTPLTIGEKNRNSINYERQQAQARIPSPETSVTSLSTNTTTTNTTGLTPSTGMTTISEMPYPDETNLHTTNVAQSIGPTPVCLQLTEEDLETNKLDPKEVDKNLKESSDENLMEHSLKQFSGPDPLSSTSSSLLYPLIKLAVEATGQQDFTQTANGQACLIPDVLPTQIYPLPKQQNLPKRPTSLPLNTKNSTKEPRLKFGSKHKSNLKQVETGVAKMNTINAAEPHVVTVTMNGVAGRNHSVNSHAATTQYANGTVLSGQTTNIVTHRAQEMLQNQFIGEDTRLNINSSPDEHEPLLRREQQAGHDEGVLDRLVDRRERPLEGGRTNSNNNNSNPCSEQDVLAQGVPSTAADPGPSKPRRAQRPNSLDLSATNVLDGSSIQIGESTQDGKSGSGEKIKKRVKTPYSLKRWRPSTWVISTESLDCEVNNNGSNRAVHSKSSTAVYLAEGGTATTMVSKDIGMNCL
T11 sequence (Q06187 whole entry): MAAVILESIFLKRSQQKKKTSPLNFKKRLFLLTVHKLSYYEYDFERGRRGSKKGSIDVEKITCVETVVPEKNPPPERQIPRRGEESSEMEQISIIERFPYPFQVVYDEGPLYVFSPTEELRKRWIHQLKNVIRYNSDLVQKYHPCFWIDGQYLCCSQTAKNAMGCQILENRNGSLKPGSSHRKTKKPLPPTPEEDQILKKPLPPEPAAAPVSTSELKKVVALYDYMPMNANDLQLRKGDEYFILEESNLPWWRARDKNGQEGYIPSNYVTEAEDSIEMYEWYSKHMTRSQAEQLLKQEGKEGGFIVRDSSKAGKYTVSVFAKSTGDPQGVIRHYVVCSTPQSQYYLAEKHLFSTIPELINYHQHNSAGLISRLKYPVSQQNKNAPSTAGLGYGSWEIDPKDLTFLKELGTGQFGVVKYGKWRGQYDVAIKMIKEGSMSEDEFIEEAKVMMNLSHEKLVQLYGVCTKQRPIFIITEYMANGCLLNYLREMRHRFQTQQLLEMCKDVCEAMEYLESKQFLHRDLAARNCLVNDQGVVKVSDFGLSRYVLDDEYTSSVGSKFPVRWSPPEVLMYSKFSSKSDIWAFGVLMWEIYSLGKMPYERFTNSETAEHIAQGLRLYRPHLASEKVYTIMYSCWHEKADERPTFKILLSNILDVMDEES
T5 sequence (P00533 25-1210): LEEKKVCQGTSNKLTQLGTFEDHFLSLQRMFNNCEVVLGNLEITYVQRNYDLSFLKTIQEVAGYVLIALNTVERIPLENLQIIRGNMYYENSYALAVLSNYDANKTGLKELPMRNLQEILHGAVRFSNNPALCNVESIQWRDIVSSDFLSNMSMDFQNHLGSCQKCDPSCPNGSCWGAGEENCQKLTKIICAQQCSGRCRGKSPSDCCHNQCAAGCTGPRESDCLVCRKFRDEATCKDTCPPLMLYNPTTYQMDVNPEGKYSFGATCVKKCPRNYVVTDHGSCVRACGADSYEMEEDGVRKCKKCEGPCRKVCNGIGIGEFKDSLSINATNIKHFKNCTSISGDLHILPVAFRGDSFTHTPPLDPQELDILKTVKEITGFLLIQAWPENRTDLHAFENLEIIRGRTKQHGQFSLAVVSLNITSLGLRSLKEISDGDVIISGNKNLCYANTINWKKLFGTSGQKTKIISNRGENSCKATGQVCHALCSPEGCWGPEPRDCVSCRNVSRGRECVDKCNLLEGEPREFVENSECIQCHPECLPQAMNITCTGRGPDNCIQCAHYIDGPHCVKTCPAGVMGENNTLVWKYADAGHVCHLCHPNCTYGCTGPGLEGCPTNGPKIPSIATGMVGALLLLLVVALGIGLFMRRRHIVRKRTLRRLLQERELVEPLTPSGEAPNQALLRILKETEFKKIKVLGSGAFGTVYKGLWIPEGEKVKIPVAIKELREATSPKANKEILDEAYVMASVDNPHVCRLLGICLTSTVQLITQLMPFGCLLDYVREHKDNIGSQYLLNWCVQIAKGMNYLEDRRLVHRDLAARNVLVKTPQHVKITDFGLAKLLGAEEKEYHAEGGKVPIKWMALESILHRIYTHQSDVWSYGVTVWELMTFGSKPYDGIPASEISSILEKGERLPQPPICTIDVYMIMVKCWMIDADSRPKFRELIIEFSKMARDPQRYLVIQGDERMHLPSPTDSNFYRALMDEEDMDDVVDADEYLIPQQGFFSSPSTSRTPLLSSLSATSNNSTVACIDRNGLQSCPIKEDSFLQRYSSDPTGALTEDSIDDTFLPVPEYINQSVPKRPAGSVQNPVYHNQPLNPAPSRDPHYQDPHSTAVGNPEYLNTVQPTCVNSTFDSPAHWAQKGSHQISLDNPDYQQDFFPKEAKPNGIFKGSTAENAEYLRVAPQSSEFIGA
T17 sequence (Q6PHR2 whole entry): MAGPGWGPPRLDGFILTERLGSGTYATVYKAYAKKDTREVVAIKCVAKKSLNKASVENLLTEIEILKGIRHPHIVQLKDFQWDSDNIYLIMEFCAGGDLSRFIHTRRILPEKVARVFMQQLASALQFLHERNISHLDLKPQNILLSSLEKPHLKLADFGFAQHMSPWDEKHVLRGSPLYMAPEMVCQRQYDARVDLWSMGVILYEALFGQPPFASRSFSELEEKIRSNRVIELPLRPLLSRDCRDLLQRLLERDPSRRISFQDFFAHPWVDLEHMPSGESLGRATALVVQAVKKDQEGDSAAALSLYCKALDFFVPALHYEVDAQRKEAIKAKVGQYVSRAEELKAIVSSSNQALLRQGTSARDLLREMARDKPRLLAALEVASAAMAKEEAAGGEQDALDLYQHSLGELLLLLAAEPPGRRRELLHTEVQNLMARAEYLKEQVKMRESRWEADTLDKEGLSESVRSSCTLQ
T19 sequence (Q8IY84 whole entry): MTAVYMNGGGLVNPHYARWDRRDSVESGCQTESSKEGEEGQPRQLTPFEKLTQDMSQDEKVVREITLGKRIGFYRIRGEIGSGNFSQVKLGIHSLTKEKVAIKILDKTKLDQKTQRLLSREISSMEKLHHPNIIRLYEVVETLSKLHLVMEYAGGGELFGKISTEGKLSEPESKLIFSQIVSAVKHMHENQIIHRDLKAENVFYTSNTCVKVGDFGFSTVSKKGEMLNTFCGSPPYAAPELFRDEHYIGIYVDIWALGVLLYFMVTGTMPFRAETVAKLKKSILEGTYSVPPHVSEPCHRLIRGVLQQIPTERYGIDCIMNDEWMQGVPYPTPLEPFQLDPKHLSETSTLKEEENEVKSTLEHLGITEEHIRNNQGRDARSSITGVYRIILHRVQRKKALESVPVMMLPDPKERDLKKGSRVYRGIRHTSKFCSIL
T6 sequence (P07949 29-1114): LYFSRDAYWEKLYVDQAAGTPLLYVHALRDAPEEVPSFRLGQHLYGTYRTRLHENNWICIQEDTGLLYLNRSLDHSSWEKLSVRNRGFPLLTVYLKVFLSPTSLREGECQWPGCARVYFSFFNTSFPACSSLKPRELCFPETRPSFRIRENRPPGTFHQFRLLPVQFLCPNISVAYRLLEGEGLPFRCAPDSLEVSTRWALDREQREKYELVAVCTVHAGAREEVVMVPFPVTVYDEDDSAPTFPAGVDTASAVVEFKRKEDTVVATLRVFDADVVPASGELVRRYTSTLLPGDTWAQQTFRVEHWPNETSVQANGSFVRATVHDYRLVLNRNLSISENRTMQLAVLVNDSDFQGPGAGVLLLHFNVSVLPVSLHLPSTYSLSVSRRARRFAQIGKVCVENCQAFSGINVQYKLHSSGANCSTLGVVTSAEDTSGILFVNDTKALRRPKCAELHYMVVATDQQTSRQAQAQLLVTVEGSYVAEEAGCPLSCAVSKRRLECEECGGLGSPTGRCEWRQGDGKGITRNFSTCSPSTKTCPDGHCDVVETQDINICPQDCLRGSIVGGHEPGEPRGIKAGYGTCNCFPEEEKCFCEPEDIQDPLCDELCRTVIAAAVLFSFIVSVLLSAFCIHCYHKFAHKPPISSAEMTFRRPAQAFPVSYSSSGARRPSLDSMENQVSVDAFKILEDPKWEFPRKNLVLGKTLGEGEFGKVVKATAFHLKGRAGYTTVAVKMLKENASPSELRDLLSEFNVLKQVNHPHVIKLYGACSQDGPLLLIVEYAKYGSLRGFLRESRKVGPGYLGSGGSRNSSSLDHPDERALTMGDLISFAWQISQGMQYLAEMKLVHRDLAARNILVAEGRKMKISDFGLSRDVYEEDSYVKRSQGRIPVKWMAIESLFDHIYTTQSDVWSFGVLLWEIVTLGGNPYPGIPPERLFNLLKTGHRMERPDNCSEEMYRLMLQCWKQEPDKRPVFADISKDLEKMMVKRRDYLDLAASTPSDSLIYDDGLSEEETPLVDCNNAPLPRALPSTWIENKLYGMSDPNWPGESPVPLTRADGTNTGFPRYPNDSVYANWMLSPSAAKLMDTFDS

Regarding `CCN1CCN(C(=O)c2ccc(Nc3ncc(F)c(-c4ccc5nc(N(C)C)sc5c4)n3)nc2)CC1` [YK-2-69], the remaining activity at 1 µM in [1] was found to be 103%; in [2] it was 50.9%; in [3], 93.2%; in test [4], 89.2%; in [6], 88.1%; in test [7] it was 96.9%. For the same compound, the remaining activity at 1 µM is 73.1% in test [8]; 160% in test [9]; 83.8% in test [10]; 99.1% in test [12]; 96% in test [13]; 101% in [15]. The remaining activity at 1 µM in [16] stood at 104%; in test [18], 55.8%; in test [19] it was 96.9%; in [20] it was 94%; in test [21] it was 94.6%; in test [22], 103%. The “% Enzyme Activity (relative to DMSO controls)” value is 109.51% and 108.13% in test [5]; 90.26% and 87.58% in test [11]; 80.68% and 76.25% in test [14]; 97.12% and 96.24% in test [17].
